In PubChem BioAssay AID1745844 (Carcinogenic Potency Database (CPDB), 2022):
Values joined by “and” are separate entries in the source; they are usually repeats but may differ in a detail not shown here. Equal values may be shown once. Active and inactive are the calls of the source. How the calls were made is not given here.

Tested on: rodent lifetime carcinogenesis bioassay, tumor incidence TD50
Experiment: carcinogenic potency in animals, long-term in vivo studies, CPDB compilation (AID 1745844)

**Q.** Which TD50 (mouse, strain B6C3F1, females, in feed, site: any site (literature study), lesion: several types, types named in the paper, dosed 80 weeks, study length 105 weeks) does the source give for `Nc1ccc(N=Nc2ccccc2)c(N)n1` here?
**A.** 89.7 mg/kg/day

**Q.** And the TD50 (mouse, strain B6C3F1, females, in feed, site: liver, lesion: hepatocellular adenoma + hepatocellular carcinoma + neoplastic nodule, dosed 80 weeks, study length 105 weeks)?
**A.** 71.1 mg/kg/day

**Q.** And the TD50 (mouse, strain B6C3F1, females, in feed, site: liver, lesion: hepatocellular adenoma + hepatocellular carcinoma, dosed 80 weeks, study length 105 weeks)?
**A.** 71.1 mg/kg/day

**Q.** And the TD50 (mouse, strain B6C3F1, females, in feed, site: liver, lesion: hepatocellular carcinoma, dosed 80 weeks, study length 105 weeks)?
**A.** 132 mg/kg/day

**Q.** What about the TD50 (mouse, strain B6C3F1, females, in feed, site: lung, lesion: alveolar/bronchiolar adenoma + alveolar/bronchiolar carcinoma, dosed 80 weeks, study length 105 weeks) of the same compound?
**A.** 4650 mg/kg/day

**Q.** What about the TD50 (mouse, strain B6C3F1, males, in feed, site: any site (literature study), lesion: several types, types named in the paper, dosed 80 weeks, study length 105 weeks) of the same compound?
**A.** 496 mg/kg/day (inactive)

**Q.** What about the TD50 (mouse, strain B6C3F1, males, in feed, site: liver, lesion: hepatocellular adenoma + hepatocellular carcinoma + neoplastic nodule, dosed 80 weeks, study length 105 weeks) of the same compound?
**A.** 811 mg/kg/day

**Q.** What about the TD50 (mouse, strain B6C3F1, males, in feed, site: lung, lesion: alveolar/bronchiolar adenoma + alveolar/bronchiolar carcinoma, dosed 80 weeks, study length 105 weeks) of the same compound?
**A.** 1300 mg/kg/day

**Q.** And the TD50 (rat, strain Fischer 344, females, in feed, site: colon, lesion: adenocarcinoma, NOS, dosed 78 weeks, study length 105 weeks)?
**A.** 687 mg/kg/day

**Q.** And the TD50 (rat, strain Fischer 344, males, in feed, site: colon + rectum, lesion: adenocarcinoma, NOS + adenoma, NOS, dosed 78 weeks, study length 104 weeks)?
**A.** 303 mg/kg/day

**Q.** What about the TD50 (rat, strain Fischer 344, males, in feed, site: colon + rectum, lesion: adenocarcinoma, NOS, dosed 78 weeks, study length 104 weeks) of the same compound?
**A.** 333 mg/kg/day

**Q.** And the TD50 (rat, strain Fischer 344, males, in feed, site: liver, lesion: hepatocellular adenoma + hepatocellular carcinoma + neoplastic nodule, dosed 78 weeks, study length 104 weeks)?
**A.** 2170 mg/kg/day

**Q.** For `ClC(Cl)(Cl)C(Cl)(Cl)Cl`, which TD50 (mouse, strain B6C3F1, females, by gavage, site: any site (literature study), lesion: several types, types named in the paper, dosed 78 weeks, study length 90 weeks) is on record?
**A.** 1190 mg/kg/day

**Q.** And the TD50 (mouse, strain B6C3F1, females, by gavage, site: liver, lesion: hepatocellular adenoma + hepatocellular carcinoma + neoplastic nodule, dosed 78 weeks, study length 90 weeks)?
**A.** 873 mg/kg/day

**Q.** What about the TD50 (mouse, strain B6C3F1, females, by gavage, site: liver, lesion: hepatocellular carcinoma, dosed 78 weeks, study length 90 weeks) of the same compound?
**A.** 873 mg/kg/day and 319 mg/kg/day

**Q.** And the TD50 (mouse, strain B6C3F1, females, by gavage, site: lung, lesion: alveolar/bronchiolar adenoma + alveolar/bronchiolar carcinoma, dosed 78 weeks, study length 90 weeks)?
**A.** 6950 mg/kg/day

**Q.** And the TD50 (mouse, strain B6C3F1, males, by gavage, site: any site (literature study), lesion: several types, types named in the paper, dosed 78 weeks, study length 90 weeks)?
**A.** 675 mg/kg/day

**Q.** And the TD50 (mouse, strain B6C3F1, males, by gavage, site: liver, lesion: hepatocellular adenoma + hepatocellular carcinoma + neoplastic nodule, dosed 78 weeks, study length 90 weeks)?
**A.** 585 mg/kg/day

**Q.** What about the TD50 (mouse, strain B6C3F1, males, by gavage, site: liver, lesion: hepatocellular carcinoma, dosed 78 weeks, study length 90 weeks) of the same compound?
**A.** 585 mg/kg/day and 359 mg/kg/day

**Q.** And the TD50 (mouse, strain B6C3F1, males, by gavage, site: lung, lesion: alveolar/bronchiolar adenoma + alveolar/bronchiolar carcinoma, dosed 78 weeks, study length 90 weeks)?
**A.** 23600 mg/kg/day

**Q.** And the carcinogen call (rat, strain Fischer 344, females, by gavage, site: any site (literature study), lesion: several types, types named in the paper, dosed 103 weeks, study length 105 weeks)?
**A.** negative (inactive)

**Q.** What about the TD50 (rat, strain Fischer 344, females, by gavage, site: liver, lesion: hepatocellular adenoma + hepatocellular carcinoma + neoplastic nodule, dosed 103 weeks, study length 105 weeks) of the same compound?
**A.** 276000 mg/kg/day

**Q.** What about the TD50 (rat, strain Fischer 344, males, by gavage, site: adrenal gland + adrenal medulla, lesion: pheochromocytoma, benign + pheochromocytoma benign, bilateral + pheochromocytoma, complex + pheochromocytoma, malignant, dosed 103 weeks, study length 105 weeks) of the same compound?
**A.** 8.02 mg/kg/day

**Q.** And the TD50 (rat, strain Fischer 344, males, by gavage, site: adrenal gland + adrenal medulla, lesion: pheochromocytoma, benign + pheochromocytoma benign, bilateral, dosed 103 weeks, study length 105 weeks)?
**A.** 9.05 mg/kg/day

**Q.** What about the TD50 (rat, strain Fischer 344, males, by gavage, site: any site (literature study), lesion: several types, types named in the paper, dosed 103 weeks, study length 105 weeks) of the same compound?
**A.** 28 mg/kg/day

**Q.** What about the TD50 (rat, strain Fischer 344, males, by gavage, site: kidney, lesion: adenoma + tubule adenoma + tubule carcinoma, dosed 103 weeks, study length 105 weeks) of the same compound?
**A.** 55.4 mg/kg/day

**Q.** What about the TD50 (rat, strain Fischer 344, males, by gavage, site: kidney, lesion: tubule carcinoma, dosed 103 weeks, study length 105 weeks) of the same compound?
**A.** 159 mg/kg/day

**Q.** And the TD50 (rat, strain Fischer 344, males, by gavage, site: liver, lesion: hepatocellular adenoma + hepatocellular carcinoma + neoplastic nodule, dosed 103 weeks, study length 105 weeks)?
**A.** 1340 mg/kg/day

**Q.** And the carcinogen call (rat, strain Osborne-Mendel, females, by gavage, site: any site (literature study), lesion: several types, types named in the paper, dosed 78 weeks, study length 111 weeks)?
**A.** negative (inactive)

**Q.** And the carcinogen call (rat, strain Osborne-Mendel, males, by gavage, site: any site (literature study), lesion: several types, types named in the paper, dosed 78 weeks, study length 111 weeks)?
**A.** negative (inactive)

**Q.** What does the source list for `O=C(O)c1ccc(O)c(O)c1`?
**A.** carcinogen call (hamster, strain Syrian Golden, females, in feed, site: liver, lesion: one or several types, types not named, dosed 49 weeks, study length 52 weeks): negative (inactive); carcinogen call (hamster, strain Syrian Golden, females, in feed, site: lung, lesion: one or several types, types not named, dosed 49 weeks, study length 52 weeks): negative (inactive)

**Q.** Which TD50 (rat, strain Fischer 344, males, in feed, site: urinary bladder, lesion: malignant tumor, dosed 74 weeks, study length 74 weeks) does the source give for `O=C1c2ccccc2C(=O)c2c(O)c(O)cc(O)c21` here?
**A.** 678 mg/kg/day

**Q.** What about the TD50 (rat, strain Fischer 344, males, in feed, site: urinary bladder, lesion: squamous-cell carcinoma, dosed 74 weeks, study length 74 weeks) of the same compound?
**A.** 3680 mg/kg/day

**Q.** What about the TD50 (rat, strain Fischer 344, males, in feed, site: urinary bladder, lesion: transitional-cell carcinoma, dosed 74 weeks, study length 74 weeks) of the same compound?
**A.** 865 mg/kg/day

**Q.** Which results are given for `CN(CCCC(=O)O)N=O`?
**A.** TD50 (rat, strain F344/DuCrj, males, in drinking water, site: urinary bladder/ureter, lesion: several types, types named in the paper, dosed 40 weeks, study length 78 weeks): 0.982 mg/kg/day; TD50 (rat, strain F344/DuCrj, males, in drinking water, site: urinary bladder/ureter, lesion: transitional-cell carcinoma, dosed 40 weeks, study length 78 weeks): 4.23 mg/kg/day

**Q.** With `C=CCN(CC(O)CO)N=O` (stereo unspecified) as the compound, how does the TD50 (rat, strain Fischer 344, females, in drinking water, site: esophagus, lesion: carcinoma, dosed 50 weeks, study length 55 weeks) read?
**A.** 1.13 mg/kg/day

**Q.** And the TD50 (rat, strain Fischer 344, females, in drinking water, site: esophagus, lesion: several types, types named in the paper, dosed 50 weeks, study length 55 weeks)?
**A.** 0.825 mg/kg/day

**Q.** What about the carcinogen call (rat, strain Fischer 344, females, in drinking water, site: liver, lesion: neoplastic nodule, dosed 50 weeks, study length 55 weeks) of the same compound?
**A.** negative (inactive)

**Q.** What about the TD50 (rat, strain Fischer 344, females, in drinking water, site: nasal cavity, lesion: several types, types named in the paper, dosed 50 weeks, study length 55 weeks) of the same compound?
**A.** 0.972 mg/kg/day
